Molecular target: KfoC (Escherichia coli, UniProt Q8L0V4)
Assay: preparative synthesis, HPLC
Type: biochemical
Settings: acceptor elongated to CS 7-mer

Sequence of KfoC (Q8L0V4 whole entry): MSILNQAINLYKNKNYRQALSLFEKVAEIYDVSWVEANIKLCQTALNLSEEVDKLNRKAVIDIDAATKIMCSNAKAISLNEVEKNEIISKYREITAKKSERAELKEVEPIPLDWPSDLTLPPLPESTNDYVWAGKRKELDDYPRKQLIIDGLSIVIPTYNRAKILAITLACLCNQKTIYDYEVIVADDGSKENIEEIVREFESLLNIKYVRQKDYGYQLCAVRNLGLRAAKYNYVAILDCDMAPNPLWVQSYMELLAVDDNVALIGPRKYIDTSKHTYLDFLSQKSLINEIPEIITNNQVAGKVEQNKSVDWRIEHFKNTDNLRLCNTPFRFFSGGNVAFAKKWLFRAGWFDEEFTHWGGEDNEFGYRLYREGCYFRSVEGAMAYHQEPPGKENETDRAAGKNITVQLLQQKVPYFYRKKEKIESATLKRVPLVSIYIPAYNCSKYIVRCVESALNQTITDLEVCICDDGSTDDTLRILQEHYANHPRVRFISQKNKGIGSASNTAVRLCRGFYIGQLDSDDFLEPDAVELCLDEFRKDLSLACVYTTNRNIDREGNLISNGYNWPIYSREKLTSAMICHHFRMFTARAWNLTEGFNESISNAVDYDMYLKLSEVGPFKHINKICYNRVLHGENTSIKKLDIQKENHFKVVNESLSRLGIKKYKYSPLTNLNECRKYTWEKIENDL

O=C(O)[C@H]1O[C@@H](Oc2ccc([N+](=O)[O-])cc2)[C@H](O)[C@@H](O)[C@@H]1O [4-nitrophenyl-β-D-glucuronide]
preparative synthesis, HPLC: GlcA-pNP was first elongated to heptasaccharide CS 7-mer by KfoC
